# Data published in patent US10513694B2, “Thienopyrrole compounds and uses thereof” (PROMEGA CORPORATION, priority 2015, dated 2019).
# Entries after “also recorded” stand apart in the source; their conditions may differ.
# What was measured:
# NANOLUC® enzyme = NANOLUC® enzyme (Oplophorus gracilirostris, UniProt Q9GV45, A31E/A60N/A81I/F95D/I117V/K70R/L54V/L99Q/M102K/N193R/P142E/Q151K/Q38R/Q45L/V71I/Y165I); test: Inhibitor IC50 determination (NANOLUC enzyme, furimazine); assay type: biochemical; conditions: IC50 (uM), 0.4 ng/ml NANOLUC enzyme, final furimazine 10 uM (at Km)
# purified Nluc enzyme = target: T1, purified Nluc enzyme (Oplophorus gracilirostris, UniProt Q9GV45, A31E/A60N/A81I/F95D/I117V/K70R/L54V/L99Q/M102K/N193R/P142E/Q151K/Q38R/Q45L/V71I/Y165I); assay type: biochemical; conditions: titration up to 100 μM final; RT 2 hrs; pro-substrate PBI-4442 + DTT
# T1 construct: purchased Promega Corporation
# Method: In a Corning 3570 assay plate, purified Nluc enzyme (Promega Corporation), 20 mM DTT, and an Nluc pro-substrate (PBI-4442, which is described in US Patent Publication No. 2013/0130289), which is converted to an Nluc substrate upon reduction with DTT, was added. Compound titrations of JRW-0004, JRW-0013, JRW-0006, JRW-0042, JRW-0138, and JRW-0147 were then made (1:2 serial dilution in PBS, 11 points plus no inhibitor control, starting at 200 μM; 100 μM final concentration in reaction). Compound titrations were added in equal volume to the wells of the assay plate. The reactions were incubated at RT for 2 hrs, and luminescence was measured on Tecan M1000 Pro plate reader. Half-maximal inhibitor (thienopyrrole compound) concentrations (IC50s) were determined using GraphPad Prism 6.03.
# [1] = tested on: firefly luciferase, e.g., ULTRAGLO® luciferase; test: Specificity of inhibition: firefly luciferase activity; assay type: biochemical; conditions: 1 μM luciferin in Luciferase Detection Reagent; RT 2 hrs
# Method: The following example describes the specificity of disclosed thienopyrrole compounds, JRW-0004, JRW-0013, JRW-0006, JRW-0042, JRW-0138, and JRW-0147, to inhibit Nluc luciferase activity versus firefly luciferase activity, e.g., ULTRAGLO® luciferase. In a Corning 3570 assay plate, a solution containing 1 μM luciferin in Luciferase Detection Reagent (Promega Corporation V865/859) was added to the assay wells. An equal volume of titrations the thienopyrrole compounds, JRW-0004, JRW-0013, JRW-0006, JRW-0042, JRW-0138, and JRW-0147 were then added to the wells. The reactions were incubated at RT for 2 hrs, and luminescence was measured on Tecan M1000 Pro plate reader.
# [2] = tested on: Beta-2 Adrenergic Receptor-Nluc (B2AR-Nluc) fusion protein; test: Cell permeability, B2AR-Nluc in HEK293 or HeLa cells -/+ digitonin; assay type: cell-based
# Method: HEK293 or HeLa cells were transiently transfected with Beta-2 Adrenergic Receptor-Nluc (B2AR-Nluc) fusion protein to anchor and orient Nluc cytosolically. 24 hrs post-transfection, cells were treated with −/+50 μg/mL digitonin to emulate a live and lytic scenario, respectively. Then, intact cells and permeabilized cells were exposed to a compound response curve of thienopyrrole compound up to 2 hrs. 10 μM furimazine (Promega Corp.) was added, and luminescence was measured. If a thienopyrrole compound (inhibitor) was permeable, the dose-response curves for both live and permeabilized cells overlapped. However, if a thienopyrrole compound was impermeable, the EC50 was right-shifted in the live cells relative to the permeabilized cells.
# [3] = tested on: B2AR-Nluc or Nluc-B2AR fusion protein; test: Cell permeability with bioluminescent imaging (HeLa, B2AR-Nluc / Nluc-B2AR); assay type: cell-based; conditions: 30 μM compound, 10 μM furimazine
# Method: HeLa cells were transiently transfected with Beta-2 Adrenergic Receptor-Nluc (B2AR-Nluc; C-Terminus Nluc) or Nluc-Beta-2 Adrenergic Receptor (Nluc-B2AR; N-terminus Nluc) fusion protein to anchor and orient Nluc intracellularly or extracellularly, respectively. 24 hrs post-transfection, cells were treated with −/+30 μM of a thienopyrrole compound, JRW-0147, JRW-0051, and JRW-0138. 10 μM furimazine was added, and luminescence was detected by imaging on the Olympus LV200.
# [4] = tested on: Nluc-HALOTAG labeled with NANOBRET 618 ligand; test: Inhibition of extracellular BRET; assay type: cell-based; conditions: HEK293 Nluc-HDAC6; 10 ng/mL extracellular Nluc-HALOTAG/NANOBRET 618; 2 hrs
# Method: HEK293 were transiently transfected with an Nluc-HDAC6 fusion protein to orient Nluc-HDAC6 inside the cell. 24 hrs post-transfection, cells were treated 10 ng/mL purified Nluc-HALOTAG labeled with NANOBRET 618 ligand to simulate spurious extracellular BRET. Cells were then exposed to a compound response curve of the thienopyrrole compounds, JRW-0013, JRW-0051, JRW-0147, and JRW-0187, for 2 hrs. 10 μM furimazine was then added, and BRET ratio 610/450 nm was measured.
# [5] = target: T2, purified Nluc (extracellular); Nluc-HALOTAG fusion protein (intracellular) (Oplophorus gracilirostris, UniProt Q9GV45, A31E/A60N/A81I/F95D/I117V/K70R/L54V/L99Q/M102K/N193R/P142E/Q151K/Q38R/Q45L/V71I/Y165I); test: Inhibition of extracellular luciferase activity and enhancement of intracellular BRET; assay type: cell-based; conditions: HEK293 Nluc-HALOTAG + NANOBRET 618; 10 ng/mL extracellular purified Nluc; 2 hrs
# T2 construct: expressed in transfected cells; host or cells: HEK293 (Nluc-HaloTag); purified Nluc added from outside
# Method: HEK293 were transiently transfected with Nluc-HALOTAG fusion protein to orient Nluc-HALOTAG inside the cell. 24 hrs post-transfection, cells were labeled with NANOBRET 618 ligand to simulate specific intracellular BRET. Cells were then treated 10 ng/mL purified Nluc to simulate spurious extracellular luminescence. Cells were exposed to a compound response curve of the thienopyrrole compounds, JRW-0013, JRW-0051, JRW-0147, and JRW-0187, for 2 hrs. 10 μM furimazine was added, and the BRET ratio 610/450 nm was measured.
# Nluc enzyme = test: Multiplex RealTime-Glo / Caspase-Glo 3/7 in MCF7 cells; assay type: cell-based
# Method: (§1) A) In a Corning 3570 assay plate, MCF7 cells were plated at 1,000 cells/well in 20 μL of cell culture media (EMEM supplemented with 0.01 mg/mL human recombinant insulin and 10% fetal bovine serum) and incubated in overnight. 10 μL of 4× REALTIME-GLO™ MT Cell Viability reagents (Promega Corporation) in media or 10 μL media only was added to the cells. 10 μL of 40 μM staurosporine in media or 10 μL media only (control) was added to the cells. The cells were incubated, and caspase activation monitored at 5.5 hrs post-reagent addition. To monitor caspase activation, 40 μL CASPASE-GLO® 3/7 Assay Reagent (Promega Corporation), either on its own (Caspase) or with 200 μM of JRW-0004, JRW-0013, or JRW-0042, was added. Reactions were incubated at RT, and luminescence was measured at 1 hr 10 min post-reagent addition on Tecan M1000 Pro plate reader.
# (§2) When comparing the signal generated from the CASPASE-GLO® reagent in media only versus the signal generated in media containing REALTIME-GLO™ reagent, the signal is higher in the multiplex reaction.
# Nluc = Nluc (Oplophorus gracilirostris, UniProt Q9GV45, A31E/A60N/A81I/F95D/I117V/K70R/L54V/L99Q/M102K/N193R/P142E/Q151K/Q38R/Q45L/V71I/Y165I); test: as above; assay type: cell-based; parameters: purchased Promega Corporation
# Method: as §1, §2
# HEK293 cells = test: Cell viability and toxicity (CellTiter-Glo); assay type: cell-based; conditions: at concentrations greater than 2 μg/mL
# Method: HEK293 cells were plated at 20 k cells/well and exposed to vehicle (DMSO), digitonin (positive control for cell death), or JRW-0344 for 10 min/30 min/120 min/240 min/or 18 hrs. CellTiter-Glo (Promega Corp.) was added, and luminescence measured.
# [6] = 10 μM Stauro vs Control, 200 μM compound
# [7] = CASPASE-GLO 3/7 reagent with 200 μM compound, 1 hr 10 min
# NANOLUC® enzyme, sequence (Q9GV45 28-196 with tags or gaps with the stated changes limits assumed): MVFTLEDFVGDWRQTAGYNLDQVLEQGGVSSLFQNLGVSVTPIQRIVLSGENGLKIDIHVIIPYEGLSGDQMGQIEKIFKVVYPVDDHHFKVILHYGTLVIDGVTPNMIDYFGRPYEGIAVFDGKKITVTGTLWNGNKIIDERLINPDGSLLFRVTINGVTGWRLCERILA
# Nluc, sequence (Q9GV45 28-196 with tags or gaps with the stated changes limits assumed): as above
# T2 sequence (Q9GV45 28-196 with tags or gaps with the stated changes limits assumed): as above
# T1 sequence (Q9GV45 28-196 with tags or gaps with the stated changes limits assumed): as above
SMILES,IC50 (NANOLUC® enzyme) [µM],Inhibition of purified Nluc enzyme (FIG. 2) (purified Nluc enzyme),Inhibition of firefly luciferase activity (FIG. 3) [1],Cell permeability [2],Permeability and inhibition of extracellular / intracellular Nluc by imaging (FIG. 14) [3],BRET ratio 610/450 nm across compound dose-response curve (FIGS. 12B-12E) [4],BRET ratio 610/450 nm across compound dose-response curve (FIGS. 13B-13E) [5],other results
"CCCCCCNC(=O)[C@H]1CC[C@H](NC(=O)c2cc3sccc3n2CC(=O)N(CC)c2cccc(C)c2)CC1 [JRW-0138, 4-(2-(ethyl(m-tolyl)amino)-2-oxoethyl)-N-(trans-4-(hexylcarbamoyl)cyclohexyl)-4H-thieno[3,2-b]pyrrole-5-carboxamide]",0.13,capable of inhibiting purified Nluc enzyme,do not inhibit firefly luciferase activity; also recorded: did not inhibit the firefly luciferase activity,cell-permeable,cell permeable and inhibited both intracellular and extracellular Nluc,,,
"CCN(C(=O)Cn1c(C(=O)N[C@H]2CC[C@H](C(=O)N3CCC(C(=O)O)CC3)CC2)cc2sccc21)c1cccc(C)c1 [JRW-0187, 1-(trans-4-(4-(2-(ethyl(m-tolyl)amino)-2-oxoethyl)-4H-thieno[3,2-b]pyrrole-5-carboxamido)cyclohexane-1-carbonyl)piperidine-4-carboxylic acid]",,,,cell-impermeable,,BRET ratio decreased,intracellular BRET ratio was enhanced,
"CCCCNC(=O)[C@H]1CC[C@H](NC(=O)c2cc3sccc3n2CC(=O)N(CC)c2cccc(C)c2)CC1 [JRW-0042, N-(trans-4-(butylcarbamoyl)cyclohexyl)-4-(2-(ethyl(m-tolyl)amino)-2-oxoethyl)-4H-thieno[3,2-b]pyrrole-5-carboxamide]",0.31,capable of inhibiting purified Nluc enzyme,do not inhibit firefly luciferase activity; also recorded: did not inhibit the firefly luciferase activity,,,,,"Fold Cont, Media only (Nluc enzyme; [6]): 5.81; Avg (luminescence), Media only, 10 μM Stauro (Nluc enzyme; [7]): 62280; Avg (luminescence), Media only, Control (Nluc enzyme; [7]): 10718; Fold Cont, Media containing RealTime-Glo (Nluc; [6]): 5.05; Avg (luminescence), Media containing RealTime-Glo, 10 μM Stauro (Nluc; [7]): 53956; Avg (luminescence), Media containing RealTime-Glo, Control (Nluc; [7]): 10679"
"C[C@@H]1CC[C@@]2(OC1)O[C@H]1[C@@H](O)[C@H]3[C@@H]4CC[C@H]5C[C@@H](O[C@@H]6O[C@H](CO)[C@H](O[C@@H]7O[C@H](CO)[C@@H](O)[C@H](O[C@@H]8OC[C@@H](O)[C@H](O)[C@H]8O)[C@H]7O[C@@H]7O[C@H](CO)[C@H](O)[C@H](O[C@@H]8O[C@H](CO)[C@@H](O)[C@H](O)[C@H]8O)[C@H]7O)[C@H](O)[C@H]6O)[C@H](O)C[C@]5(C)[C@H]4CC[C@]3(C)[C@H]1[C@@H]2C [Digitonin, reference compound]",,,,,,,,Cell death (FIG. 18B) (HEK293 cells): almost complete death
"CCN(C(=O)Cn1c(C(=O)N[C@H]2CC[C@H](C(=O)NCCCC(=O)O)CC2)cc2sccc21)c1cccc(C)c1 [JRW-0051, 4-(trans-4-(4-(2-(ethyl(m-tolyl)amino)-2-oxoethyl)-4H-thieno[3,2-b]pyrrole-5-carboxamido)cyclohexane-1-carboxamido)butanoic acid]",0.74,,,cell-impermeable,impermeable and inhibited extracellular Nluc and enhanced intracellular Nluc,BRET ratio decreased,intracellular BRET ratio was enhanced,
